What follows are molecules tested against SOS1/KRAS WT (Homo sapiens (Human), UniProt Q07889) (assay: SOS1/KRAS WT HTRF binding assay (FRET-based protein-protein interaction)). Conditions: inhibition of His6-SOS1 (aa564-1049, 40 nM) binding to GST-KRAS-WT (aa1-188, 40 nM); at least two independent replicates; read-out: SOS1/KRAS WT HTRF Binding assay pIC50 (converted).
Source text: The capacity of compounds to inhibit SOS1 binding to KRAS-WT (wild-type) was quantified using a FRET-based protein-protein interaction assay. The assay is based on the transfer of energy between two fluorophores, a donor and an acceptor, when in close proximity. In this instance, the donor is a Europium-conjugated α-GST antibody that binds to GST-tagged KRAS-WT, and the acceptor is an XL665-conjugated α-His 6 antibody that binds to His 6-tagged SOS1. Binding of SOS1 to KRAS-WT results in an increased fluorescent signal at emission wavelength of 665 nm which can be detected on the EnVision plate reader. Compounds that inhibit binding will reduce the 665 nm signal emitted. Recombinant KRAS-WT protein (40 nM; Human KRAS, aa1-188 recombinant protein with N-terminal GST-tag) and SOS1 protein (40 nM; Human SOS1 exchange domain, aa564-1049 with N-terminal 6His-tag) were mixed together in assay buffer (5 mM HEPES pH7.3, 150 mM NaCl, 10 mM EDTA, 5 mM MgCl2, 0.05% BSA, 0.0025% NP-40, 1 mM DTT and 100 mM KF) and incubated at room temperature with a dose response of compound in a 384-well low volume white plate and a final volume of 5 ul. After a 60 minute incubation, 5 ul of 4 nM anti-GST-Eu(K) (Cisbio, France) combined with 20 nM anti-6His-XL665 (Cisbio, France), diluted in assay buffer, was added to the plate. Following a further 4 hr incubation at room temperature, time-resolved fluorescence was measured on the EnVision plate reader. DMSO (0.05%) and 10 μM reference compound were used to generate the Max and Min assay signals, respectively. Data was analysed using a four-parameter logistic model to calculate IC50 values, with at least two independent replicates performed for each compound.
Data was analyzed using a four-parameter logistic model to calculate IC50 values, with at least two independent replicates performed for each compound.

SOS1/KRAS WT, sequence (Q07889 564-1049): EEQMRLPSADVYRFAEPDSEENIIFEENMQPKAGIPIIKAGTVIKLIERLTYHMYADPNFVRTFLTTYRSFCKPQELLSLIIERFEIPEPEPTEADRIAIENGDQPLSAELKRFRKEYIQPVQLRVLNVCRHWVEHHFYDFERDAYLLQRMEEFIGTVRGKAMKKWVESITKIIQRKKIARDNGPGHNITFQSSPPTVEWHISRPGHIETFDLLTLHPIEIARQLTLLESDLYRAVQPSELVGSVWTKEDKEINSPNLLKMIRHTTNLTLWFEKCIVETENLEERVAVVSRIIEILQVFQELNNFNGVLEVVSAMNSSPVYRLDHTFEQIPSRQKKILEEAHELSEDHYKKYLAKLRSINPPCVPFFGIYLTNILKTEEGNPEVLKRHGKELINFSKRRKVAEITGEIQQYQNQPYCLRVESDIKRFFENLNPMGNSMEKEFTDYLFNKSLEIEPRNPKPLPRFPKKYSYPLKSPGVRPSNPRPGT

| Structure (SMILES) | IC50 [nM] |
| --- | --- |
| Cc1nnc(NC(C)c2cccc(C(F)(F)F)c2)c2cc3c(cc12)n(C)c(=O)n3C1CCCC1 (stereo not drawn) [Compound 1, 3-cyclopentyl-1,8-dimethyl-5-[1-[3-(trifluoromethyl)phenyl]-ethylamino]^− imidazo[4,5-g]phthalazin-2-one] | 37.2 |
| Cc1nnc(N[C@H](C)c2cccc(C(F)(F)F)c2)c2cc3c(cc12)n(C)c(=O)n3C1CCCC1 [Compound 2, 3-cyclopentyl-1,8-dimethyl-5-[[(1R)-1-[3-(trifluoromethyl)phenyl]ethyl]amino] imidazo[4,5-g]phthalazin-2-one] | 13.2 |
| Cc1nnc(N[C@H](C)c2cccc(C(F)(F)CO)c2F)c2cc3c(cc12)n(C)c(=O)n3C [Compound 7, 5-[[(1R)-1-[3-(1,1-difluoro-2-hydroxy-ethyl)-2-fluoro-phenyl]ethyl]amino]-1,3,8-trimethyl-imidazo[4,5-g]phthalazin-2-one] | 17.4 |
| Cc1c([C@@H](C)Nc2nnc(C)c3cc4c(cc23)n(C)c(=O)n4C)cccc1C(F)(F)CO [Compound 10, 5-[[(1R)-1-[3-(1,1-difluoro-2-hydroxy-ethyl)-2-methyl-phenyl]ethyl]amino]-1,3,8-trimethyl-imidazo[4,5-g]phthalazin-2-one] | 9.12 |
| Cc1nnc(N[C@H](C)c2cccc(C(F)(F)CO)c2F)c2cc3c(cc12)n(C)c(=O)n3C(C)C [Compound 15, 3-isopropyl-1,8-dimethyl-5-[[(1R)-1-[3-(1,1-difluoro-2-hydroxy-ethyl)-2-fluoro-phenyl]ethyl]amino]imidazo[4,5-g]phthalazin-2-one] | 8.32 |
| Cc1nnc(N[C@H](C)c2cccc(C(F)(F)C(C)(C)O)c2F)c2cc3c(cc12)n(C)c(=O)n3C [Compound 16, 1,3,8-trimethyl-5-[[(1R)-1-[3-(1,1-difluoro-2-hydroxy-2-methyl-propyl)-2-fluoro-phenyl]ethyl]amino]imidazo[4,5-g]phthalazin-2-one] | 11.2 |
| CCn1c(=O)n(C)c2cc3c(C)nnc(N[C@H](C)c4cccc(C(F)(F)CO)c4F)c3cc21 [Compound 19, 3-ethyl-1,8-dimethyl-5-[[(1R)-1-[3-(1,1-difluoro-2-hydroxy-ethyl)-2-fluoro-phenyl]ethyl]amino]imidazo[4,5-g]phthalazin-2-one] | 9.12 |
| CCn1c(=O)n(C)c2cc3c(C)nnc(N[C@H](C)c4cccc(C(F)F)c4F)c3cc21 [Compound 20, 3-ethyl-1,8-dimethyl-5-[[(1R)-1-[3-(difluoromethyl)-2-fluoro-phenyl]ethyl]amino]imidazo[4,5-g]phthalazin-2-one] | 10 |
| Cc1nnc(N[C@H](C)c2cccc(C(F)(F)CO)c2F)c2cc3c(cc12)n(C)c(=O)n3C1CCC1 [Compound 21, 3-cyclobutyl-1,8-dimethyl-5-[[(1R)-1-[3-(1,1-difluoro-2-hydroxy-ethyl)-2-fluoro-phenyl]ethyl]amino]imidazo[4,5-g]phthalazin-2-one] | 9.77 |
| Cc1nnc(N[C@H](C)c2cccc(C(F)(F)F)c2)c2cc3c(cc12)OCC(=O)N3C [Compound 23, 4,9-dimethyl-6-[[(1R)-1-[3-(trifluoromethyl)phenyl]ethyl]amino]pyridazino[4,5-g][1,4]benzoxazin-3-one] | 44.7 |
| Cc1nnc(N[C@H](C)c2cccc(C(F)(F)F)c2)c2cc3c(cc12)OC1(CC1)C(=O)N3C(C)C [Compound 25, 4′-isopropyl-9′-methyl-6′-[[(1R)-1-[3-(trifluoromethyl)phenyl]ethyl]amino]spiro[cyclopropane-1,2′-pyridazino[4,5-g][1,4]benzoxazine]-3′-one] | 63.1 |
| Cc1nnc(N[C@H](C)c2cccc(C(F)(F)CO)c2F)c2cc3c(cc12)n(C)c(=O)n3C(C)(C)C [Compound 26, 3-tert-butyl-1,8-dimethyl-5-[[(1R)-1-[3-(1,1-difluoro-2-hydroxy-ethyl)-2-fluoro-phenyl]ethyl]amino]imidazo[4,5-g]phthalazin-2-one] | 14.5 |
| Cc1nnc(N[C@H](C)c2cccc(C(F)F)c2F)c2cc3c(cc12)n(C)c(=O)n3C(C)(C)C [Compound 27, 3-tert-butyl-1,8-dimethyl-5-[[(1R)-1-[3-(difluoromethyl)-2-fluoro-phenyl]ethyl]amino]imidazo[4,5-g]phthalazin-2-one] | 9.33 |

Other lines, results leading:

| IC50 [nM] | Structure (SMILES) |
| --- | --- |
| 20.9 | Cc1nnc(N[C@H](C)c2cccc(C(F)(F)F)c2)c2cc3c(cc12)n(C)c(=O)n3C [Compound 3, 1,3,8-trimethyl-5-[[(1R)-1-[3-(trifluoromethyl)phenyl]ethyl]amino] imidazo[4,5-g]phthalazin-2-one] |
| 17 | Cc1nnc(N[C@H](C)c2cc(N)cc(C(F)(F)F)c2)c2cc3c(cc12)n(C)c(=O)n3C [Compound 4, 5-[[(1R)-1-[3-amino-5-(trifluoromethyl)phenyl]ethyl]amino]-1,3,8-trimethyl-imidazo[4,5-g]phthalazin-2-one] |
| 39.8 | Cc1nnc(N[C@H](C)c2cccc(C(F)F)c2)c2cc3c(cc12)n(C)c(=O)n3C [Compound 5, 5-[[(1R)-1-[3-(difluoromethyl)phenyl]ethyl]amino]-1,3,8-trimethyl-imidazo[4,5-g]phthalazin-2-one] |
| 18.6 | Cc1nnc(N[C@H](C)c2cccc(C(F)(F)CO)c2)c2cc3c(cc12)n(C)c(=O)n3C [Compound 6, 5-[[(1R)-1-[3-(1,1-difluoro-2-hydroxy-ethyl)phenyl]ethyl]amino]-1,3,8-trimethyl-imidazo[4,5-g]phthalazin-2-one] |
| 12.6 | COCCn1c(=O)n(C)c2cc3c(C)nnc(N[C@H](C)c4cccc(C(F)(F)F)c4)c3cc21 [Compound 8, 3-(2-methoxyethyl)-1,8-dimethyl-5-[[(1R)-1-[3-(trifluoromethyl)phenyl]ethyl]amino]imidazo[4,5-g]phthalazin-2-one] |
| 12 | CCn1c(=O)n(C)c2cc3c(C)nnc(N[C@H](C)c4cccc(C(F)(F)F)c4)c3cc21 [Compound 9, 3-ethyl-1,8-dimethyl-5-[[(1R)-1-[3-(trifluoromethyl)phenyl]ethyl]amino] imidazo[4,5-g]phthalazin-2-one] |
| 12 | Cc1nnc(N[C@H](C)c2cccc(C(F)(F)F)c2)c2cc3c(cc12)n(C)c(=O)n3CC(F)(F)F [Compound 11, 1,8-dimethyl-5-[[(1R)-1-[3-(trifluoromethyl)phenyl]ethyl]amino]-3-(2,2,2-trifluoroethyl)imidazo[4,5-g]phthalazin-2-one] |
| 8.13 | Cc1nnc(N[C@H](C)c2cccc(C(F)(F)F)c2)c2cc3c(cc12)n(C)c(=O)n3C(C)C [Compound 12, 3-isopropyl-1,8-dimethyl-5-[[(1R)-1-[3-(trifluoromethyl)phenyl]ethyl]amino]imidazo[4,5-g]phthalazin-2-one] |
| 11.5 | Cc1nnc(N[C@H](C)c2cccc(C(F)(F)F)c2)c2cc3c(cc12)n(C)c(=O)n3C1CC1 [Compound 13, 3-cyclopropyl-1,8-dimethyl-5-[[(1R)-1-[3-(trifluoromethyl)phenyl]ethyl]amino]imidazo[4,5-g]phthalazin-2-one] |
| 7.59 | Cc1nnc(N[C@H](C)c2cccc(C(F)(F)CO)c2)c2cc3c(cc12)n(C)c(=O)n3C(C)C [Compound 14, 3-isopropyl-1,8-dimethyl-5-[[(1R)-1-[3-(1,1-difluoro-2-hydroxy-ethyl)phenyl]ethyl]amino]imidazo [4,5-g]phthalazin-2-one] |
| 22.9 | COCCn1c(=O)n(C)c2cc3c(N[C@H](C)c4cccc(C(F)(F)F)c4)nnc(C)c3cc21 [Compound 17, 1-(2-methoxyethyl)-3,8-dimethyl-5-[[(1R)-1-[3-(trifluoromethyl)phenyl]ethyl]amino] imidazo[4,5-g]phthalazin-2-one] |
| 23.4 | Cc1nnc(N[C@H](C)c2cccc(C(F)(F)F)c2)c2cc3c(cc12)n(C)c(=O)n3CC1CC1 [Compound 18, 3-(cyclopropylmethyl)-1,8-dimethyl-5-[[(1R)-1-[3-(trifluoromethyl)phenyl]ethyl]amino] imidazo[4,5-g]phthalazin-2-one] |
| 11.5 | Cc1nnc(N[C@H](C)c2cccc(C(F)(F)F)c2)c2cc3c(cc12)n(C)c(=O)n3C1CCC1 [Compound 22, 3-cyclobutyl-1,8-dimethyl-5-[[(1R)-1-[3-(trifluoromethyl)phenyl]ethyl]amino] imidazo[4,5-g]phthalazin-2-one] |
| 12.3 | COCCn1c(=O)n(C)c2cc3c(C)nnc(N[C@H](C)c4cccc(C(F)F)c4F)c3cc21 [Compound 28, 3-(2-methoxyethyl)-1,8-dimethyl-5-[[(1R)-1-[3-(difluoromethyl)-2-fluoro-phenyl]ethyl]amino]imidazo[4,5-g]phthalazin-2-one] |

From patent US20250197407A1 (Jazz Pharmaceuticals Ireland Limited, priority 2022, published 2025)
